Species on record: Rattus norvegicus
Assay: DrugMatrix - Regimen: Daily Repeat
Assay type: toxicity, organism-based, Sprague-Dawley
Parameters: regimen Daily Repeat, gender Male, age 6-8 weeks
Conditions: in vivo, po, route oral GAVAGE, […]; for ABSOLUTE BASOPHIL / ABSOLUTE EOSINOPHIL / ABSOLUTE LYMPHOCYTE / ABSOLUTE MONOCYTE / ABSOLUTE SEGMENTED NEUTROPHIL / BASOPHIL / EOSINOPHIL / ERYTHROCYTE COUNT / HEMATOCRIT / HEMOGLOBIN / LEUKOCYTE COUNT / LYMPHOCYTE / MEAN CORPUSCULAR HEMOGLOBIN / MEAN CORPUSCULAR HEMOGLOBIN CONCENTRATION / MEAN CORPUSCULAR VOLUME / MONOCYTE / NEUTROPHIL / NUCLEATED RED BLOOD CELLS / PLATELET COUNT: tissue Blood; for ALANINE AMINOTRANSFERASE / ALBUMIN / ALKALINE PHOSPHATASE / ASPARTATE AMINOTRANSFERASE / BLOOD UREA NITROGEN / CARBON DIOXIDE / CHLORIDE / CHOLESTEROL / CREATINE PHOSPHOKINASE / CREATININE / GLUCOSE / LACTATE DEHYDROGENASE / LIPASE / PHOSPHORUS / POTASSIUM / SODIUM / TOTAL BILIRUBIN / TOTAL PROTEIN / URIC ACID: tissue Plasma
[1] = 30 mg/kg, 120 h, dose level Low, time 5 day
[2] = 1093 mg/kg, 72 h, dose level High, time 3 day
[3] = 1093 mg/kg, 120 h, dose level High, time 5 day

For CCC(C)n1ncn(-c2ccc(N3CCN(c4ccc(OCC5COC(Cn6cncn6)(c6ccc(Cl)cc6Cl)O5)cc4)CC3)cc2)c1=O (centres undefined) [ITRACONAZOLE], the “ABSOLUTE BASOPHIL” value [1] was 0 CELLS/uL, the “ABSOLUTE EOSINOPHIL” value [1] was 154 CELLS/uL and the “ABSOLUTE LYMPHOCYTE” value [1] was 10619.33 CELLS/uL. For the same compound, the “ABSOLUTE MONOCYTE” value [1] was 425.67 CELLS/uL, the “ABSOLUTE SEGMENTED NEUTROPHIL” value [1] was 634.33 CELLS/uL and the BASOPHIL [1] was 0%. The EOSINOPHIL [1] was 1.33%, the “ERYTHROCYTE COUNT” value [1] was 5.97 x10E6/uL and the HEMATOCRIT [1] was 38.27%. The HEMOGLOBIN [1] was 14.43 G/DL, the “LEUKOCYTE COUNT” value [1] was 11.83 x10E3/uL and the LYMPHOCYTE [1] was 89.67%. For the same compound, the “MEAN CORPUSCULAR HEMOGLOBIN” value [1] was 24.2 pg, the “MEAN CORPUSCULAR HEMOGLOBIN CONCENTRATION” value [1] was 37.77 G/DL and the “MEAN CORPUSCULAR VOLUME” value [1] was 64.1 fL. For the same compound, the MONOCYTE [1] was 3.67%, the NEUTROPHIL [1] was 5.33% and the “NUCLEATED RED BLOOD CELLS” value [1] was 0 /100WBC. For the same compound, the “PLATELET COUNT” value [1] was 1278.33 x10E3/uL, the “ALANINE AMINOTRANSFERASE” value [1] was 59.67 u/L and the ALBUMIN [1] was 4.03 G/DL. The “ALKALINE PHOSPHATASE” value [1] was 472.33 u/L, the “ASPARTATE AMINOTRANSFERASE” value [1] was 77 u/L and the “BLOOD UREA NITROGEN” value [1] was 9 mg/dL. For the same compound, the “CARBON DIOXIDE” value [1] was 23.67 mmol/L, the CHLORIDE [1] was 102.67 MEQ/L and the CHOLESTEROL [1] was 50.33 mg/dL. The “CREATINE PHOSPHOKINASE” value [1] was 199.67 u/L, the CREATININE [1] was 0.12 mg/dL and the GLUCOSE [1] was 162.67 mg/dL. For the same compound, the “LACTATE DEHYDROGENASE” value [1] was 92.67 u/L, the LIPASE [1] was 6.33 u/L and the PHOSPHORUS [1] was 11.77 mg/dL. For the same compound, the POTASSIUM [1] was 6.35 MEQ/L, the SODIUM [1] was 142.93 MEQ/L and the “TOTAL BILIRUBIN” value [1] was 0.13 mg/dL. The “TOTAL PROTEIN” value [1] was 5.97 G/DL, the “URIC ACID” value [1] was 1.6 mg/dL and the “ABSOLUTE BASOPHIL” value [2] was 0 CELLS/uL. The “ABSOLUTE EOSINOPHIL” value [2] was 143 CELLS/uL, the “ABSOLUTE LYMPHOCYTE” value [2] was 12564.33 CELLS/uL and the “ABSOLUTE MONOCYTE” value [2] was 467.67 CELLS/uL. For the same compound, the “ABSOLUTE SEGMENTED NEUTROPHIL” value [2] was 825 CELLS/uL, the BASOPHIL [2] was 0% and the EOSINOPHIL [2] was 1%. For the same compound, the “ERYTHROCYTE COUNT” value [2] was 6.06 x10E6/uL, the HEMATOCRIT [2] was 38.43% and the HEMOGLOBIN [2] was 14.67 G/DL. The “LEUKOCYTE COUNT” value [2] was 14 x10E3/uL, the LYMPHOCYTE [2] was 89.67% and the “MEAN CORPUSCULAR HEMOGLOBIN” value [2] was 24.23 pg. For the same compound, the “MEAN CORPUSCULAR HEMOGLOBIN CONCENTRATION” value [2] was 38.17 G/DL, the “MEAN CORPUSCULAR VOLUME” value [2] was 63.43 fL and the MONOCYTE [2] was 3.33%. The NEUTROPHIL [2] was 6%, the “NUCLEATED RED BLOOD CELLS” value [2] was 0 /100WBC and the “PLATELET COUNT” value [2] was 1165.33 x10E3/uL. For the same compound, the “ALANINE AMINOTRANSFERASE” value [2] was 57 u/L, the ALBUMIN [2] was 4 G/DL and the “ALKALINE PHOSPHATASE” value [2] was 535.67 u/L. The “ASPARTATE AMINOTRANSFERASE” value [2] was 71 u/L, the “BLOOD UREA NITROGEN” value [2] was 10.67 mg/dL and the “CARBON DIOXIDE” value [2] was 22.67 mmol/L. The CHLORIDE [2] was 102.33 MEQ/L, the CHOLESTEROL [2] was 50.33 mg/dL and the “CREATINE PHOSPHOKINASE” value [2] was 230.33 u/L. The CREATININE [2] was 0.12 mg/dL, the GLUCOSE [2] was 165 mg/dL and the “LACTATE DEHYDROGENASE” value [2] was 54.33 u/L. The LIPASE [2] was 9.33 u/L, the PHOSPHORUS [2] was 10.63 mg/dL and the POTASSIUM [2] was 6.01 MEQ/L. The SODIUM [2] was 142.3 MEQ/L, the “TOTAL BILIRUBIN” value [2] was 0.17 mg/dL and the “TOTAL PROTEIN” value [2] was 5.87 G/DL. For the same compound, the “URIC ACID” value [2] was 1.77 mg/dL, the “ABSOLUTE BASOPHIL” value [3] was 0 CELLS/uL and the “ABSOLUTE EOSINOPHIL” value [3] was 139 CELLS/uL. For the same compound, the “ABSOLUTE LYMPHOCYTE” value [3] was 10102.67 CELLS/uL, the “ABSOLUTE MONOCYTE” value [3] was 609.67 CELLS/uL and the “ABSOLUTE SEGMENTED NEUTROPHIL” value [3] was 1115.33 CELLS/uL. The BASOPHIL [3] was 0%, the EOSINOPHIL [3] was 1% and the “ERYTHROCYTE COUNT” value [3] was 5.79 x10E6/uL. The HEMATOCRIT [3] was 36.73%, the HEMOGLOBIN [3] was 14.13 G/DL and the “LEUKOCYTE COUNT” value [3] was 11.97 x10E3/uL. For the same compound, the LYMPHOCYTE [3] was 84.67%, the “MEAN CORPUSCULAR HEMOGLOBIN” value [3] was 24.4 pg and the “MEAN CORPUSCULAR HEMOGLOBIN CONCENTRATION” value [3] was 38.47 G/DL. The “MEAN CORPUSCULAR VOLUME” value [3] was 63.43 fL, the MONOCYTE [3] was 5% and the NEUTROPHIL [3] was 9.33%. The “NUCLEATED RED BLOOD CELLS” value [3] was 0 /100WBC, the “PLATELET COUNT” value [3] was 1189.33 x10E3/uL and the “ALANINE AMINOTRANSFERASE” value [3] was 78.67 u/L. The ALBUMIN [3] was 4.17 G/DL, the “ALKALINE PHOSPHATASE” value [3] was 402 u/L and the “ASPARTATE AMINOTRANSFERASE” value [3] was 84.33 u/L. For the same compound, the “BLOOD UREA NITROGEN” value [3] was 10.67 mg/dL, the “CARBON DIOXIDE” value [3] was 22.33 mmol/L and the CHLORIDE [3] was 103.67 MEQ/L. For the same compound, the CHOLESTEROL [3] was 67 mg/dL, the “CREATINE PHOSPHOKINASE” value [3] was 522 u/L and the CREATININE [3] was 0.21 mg/dL. For the same compound, the GLUCOSE [3] was 181 mg/dL, the “LACTATE DEHYDROGENASE” value [3] was 126 u/L and the LIPASE [3] was 17.33 u/L. The PHOSPHORUS [3] was 11.7 mg/dL, the POTASSIUM [3] was 5.88 MEQ/L and the SODIUM [3] was 143.47 MEQ/L. The “TOTAL BILIRUBIN” value [3] was 0.13 mg/dL, the “TOTAL PROTEIN” value [3] was 5.83 G/DL and the “URIC ACID” value [3] was 2 mg/dL.
